# Article PMC9181852, “In Vivo and In Vitro Biological Evaluation and Molecular Docking Studies of Compounds Isolated from Micromeria biflora (Buch. Ham. ex D.Don) Benth” (Molecules, 2022)
# What was measured:
# Open field sedative test = format: in vivo, mice (Balb/c); details: 30 min after administration
# Protocol: (§1) Healthy mice (Balb/c) with weight ranging from 20 to 22 g and ages 9 to 10 weeks were used in this screening model. The grown animals were provided with standard laboratory conditions such as standard food and water ad libitum. The in vivo biological screening test was performed at the Department of Veterinary Medicine, College of Agriculture and Veterinary Medicine, Qassim University Buraydah, Saudi Arabia, as well as Swabi University, KP, Pakistan, according to published procedures.
# The sedative potential of salicylalazine isolated from M. biflora was assessed as per the reported procedure. The animals were divided into different groups, as designated above. The apparatuses used in this screening contained an area of white wood with a 150 cm diameter bordered by stainless steel walls and was separated into 19 squares by black lines. Then, the open field apparatus was positioned inside the light and sound-reduced room. The different groups of animals were administered distilled water, diazepam, and salicylalazine at different doses. Thirty minutes after administration, all groups of animals were permitted to move from the center of the design box. […] Statistical calculations were performed by counting the number of lines crossed by every animal.
# COX-1 = COX-1 (Homo sapiens, UniProt P23219); experiment: In vitro COX-1 inhibition (screening kit)
# COX-1, sequence (P23219 24-599): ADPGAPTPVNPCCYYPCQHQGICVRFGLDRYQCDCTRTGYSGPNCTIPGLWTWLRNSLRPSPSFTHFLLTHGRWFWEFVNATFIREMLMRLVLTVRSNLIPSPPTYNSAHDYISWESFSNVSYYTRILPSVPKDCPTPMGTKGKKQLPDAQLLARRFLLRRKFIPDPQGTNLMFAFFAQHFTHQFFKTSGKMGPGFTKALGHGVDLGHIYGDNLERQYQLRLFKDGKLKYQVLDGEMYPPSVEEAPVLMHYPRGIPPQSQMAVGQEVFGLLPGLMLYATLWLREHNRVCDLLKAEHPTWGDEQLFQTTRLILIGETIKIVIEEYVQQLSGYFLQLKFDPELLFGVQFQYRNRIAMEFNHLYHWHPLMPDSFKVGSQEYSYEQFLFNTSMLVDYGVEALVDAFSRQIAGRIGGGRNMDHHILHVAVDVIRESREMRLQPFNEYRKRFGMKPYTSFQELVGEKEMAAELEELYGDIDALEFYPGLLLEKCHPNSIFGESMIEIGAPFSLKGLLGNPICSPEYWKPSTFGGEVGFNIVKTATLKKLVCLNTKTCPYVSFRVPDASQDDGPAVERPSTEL
# Protocol: (§2) The in vitro inhibition of cyclooxygenases (COX-1 and COX-2) by the isolated compounds was determined using screening kits.
# [1] = Traction muscle relaxation model; format: in vivo, mice (Balb/c)
# Protocol: as §1
# A traction screening model was adapted to identify the relaxation of muscle for salicylalazine isolated from M. biflora according to the standard method. The traction model was considered by using metallic wires covered with rubber, and then the wires were linked with each other using a stand around 60 cm upstairs of the lab bench. The animals were distributed into different groups, with each group comprising six animals (n = 6). The various groups of animals were administered water, diazepam, and salicylalazine at different doses. After administration, all groups of animals were subjected to traction screening after 30, 60, and 90 min. […] Traction testing was repeatedly performed to calculate the muscle relaxant ability of salicylalazine as per the reported method.
# MDR2780AD = experiment: Anticancer MTT assay, MDR2780AD; format: cell-based; details: 24 h
# COX-2 = molecular target: T1, COX-2 (Homo sapiens, UniProt P35354); experiment: In vitro COX-2 inhibition (screening kit); format: biochemical
# T1 construct: purchased
# T1 sequence (P35354 18-604): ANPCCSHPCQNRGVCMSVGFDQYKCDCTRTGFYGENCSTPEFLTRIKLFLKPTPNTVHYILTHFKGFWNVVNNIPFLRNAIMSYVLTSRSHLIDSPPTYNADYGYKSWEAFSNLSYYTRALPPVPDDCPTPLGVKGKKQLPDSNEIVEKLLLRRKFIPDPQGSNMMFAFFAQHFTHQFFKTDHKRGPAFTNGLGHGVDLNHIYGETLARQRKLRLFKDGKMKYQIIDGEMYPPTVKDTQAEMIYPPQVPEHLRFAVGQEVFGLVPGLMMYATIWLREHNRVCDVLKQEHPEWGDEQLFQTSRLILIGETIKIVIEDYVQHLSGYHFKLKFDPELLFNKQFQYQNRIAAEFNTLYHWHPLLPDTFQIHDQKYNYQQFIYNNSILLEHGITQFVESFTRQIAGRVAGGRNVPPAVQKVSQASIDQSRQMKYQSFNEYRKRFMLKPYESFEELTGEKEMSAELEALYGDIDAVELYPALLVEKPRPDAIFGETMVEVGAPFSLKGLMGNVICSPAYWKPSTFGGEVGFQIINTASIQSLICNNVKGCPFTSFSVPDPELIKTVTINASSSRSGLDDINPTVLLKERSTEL
# Protocol: as §2
smiles,measurement,setting,value
"Oc1ccccc1/C=N/N=C/c1ccccc1O [Salicylalazine, salicylalazine]",No of Lines Crossed,Open field sedative test; dose 2.5 mg/kg,78.54 ± 0.98
same,No of Lines Crossed,Open field sedative test; dose 5 mg/kg,69.98 ± 1.22
same,No of Lines Crossed,Open field sedative test; dose 10 mg/kg,60.90 ± 1.00
same,No of Lines Crossed,Open field sedative test; dose 15 mg/kg,51.09 ± 0.97
same,No of Lines Crossed,Open field sedative test; dose 20 mg/kg,40.98 ± 0.80
same,IC50,COX-1,44.1 ± 1.18 µM
same,Traction Test (%),"[1]; dose 2.5 mg/kg, 30 min",21.23 ± 1.55%
same,Traction Test (%),"[1]; dose 2.5 mg/kg, 60 min",27.78 ± 2.10%
same,Traction Test (%),"[1]; dose 2.5 mg/kg, 90 min",28.65 ± 1.02%
same,Traction Test (%),"[1]; dose 5 mg/kg, 30 min",28.12 ± 1.60%
same,Traction Test (%),"[1]; dose 5 mg/kg, 60 min",34.56 ± 2.07%
same,Traction Test (%),"[1]; dose 5 mg/kg, 90 min",35.34 ± 2.00%
same,Traction Test (%),"[1]; dose 10 mg/kg, 30 min",34.99 ± 1.70%
same,Traction Test (%),"[1]; dose 10 mg/kg, 60 min",39.45 ± 2.12%
same,Traction Test (%),"[1]; dose 10 mg/kg, 90 min",40.66 ± 1.88%
same,Traction Test (%),"[1]; dose 15 mg/kg, 30 min",45.78 ± 1.88%
same,Traction Test (%),"[1]; dose 15 mg/kg, 60 min",52.98 ± 2.15%
same,Traction Test (%),"[1]; dose 15 mg/kg, 90 min",52.32 ± 2.04%
same,Traction Test (%),"[1]; dose 20 mg/kg, 30 min",53.72 ± 1.89%
same,Traction Test (%),"[1]; dose 20 mg/kg, 60 min",60.56 ± 2.13%
same,Traction Test (%),"[1]; dose 20 mg/kg, 90 min",61.32 ± 2.06%
same,IC50,MDR2780AD,0.85 ± 0.09 µM
same,IC50,COX-2,9.08 ± 0.11 µM
same,SI,COX-2; SI = IC50 (COX-1)/IC50 (COX-2),4.85
